{"source": "patent US4002740A", "about": "“Tridecapeptide compositions and methods” (priority 1975, dated 1977)", "key": {"[1]": {"tested_on": "CR+ B cell differentiation from CR- B cell precursors (spleen cell populations from nu/nu mice)", "assay": "induction in vitro of CR+ B cell differentiation from CR- B cell precursors (binding of sheep erythrocytes coated with antibody and complement)", "type": "cell-based", "protocol": "(§1) to determine the activity and characteristics of the polypeptide, determinations were carried out on healthy 5-6 week old nu/nu mice of both sexes, the mice being bred on a BALB/c background (thymocytes expressing Thy-1.2 surface antigen) and maintained under conventional conditions. For the antisera, anti Thy-1.2 sera were prepared in Thy-1 congenic mice.\n(§2) For the induction of in vitro of Thy-1^+ T cell or CR^+ B cell differentiation, the induction of thymocyte differentiation from prothymocytes in vitro was performed as described by Komuro and Boyse, (Lancet 1, 740, 1973), using the acquisition of Thy-1.2 as a marker of T cell differentiation. The induction of CR^+ B cell differentiation from CR^- B cell precursors in vitro was performed under similar conditions using as the assay criterion, the capacity of CR^+ B cells to bind sheep erythrocytes coated with subagglutinating quantities of rabbit antibody and nonlytic complement. Spleen cell populations from healthy nu/nu mice fractionated on discontinuous bovine serium albumin gradients were used as the source of both precursor types (Thy-1 and […]) because they have few or no Thy-1^+ cells and low numbers of CR^+ cells."}, "[2]": {"tested_on": "Thy-1+ T cell differentiation from prothymocytes (spleen cell populations from nu/nu mice)", "assay": "induction in vitro of Thy-1+ T cell differentiation from prothymocytes (acquisition of Thy-1.2 as marker)", "type": "cell-based", "details": "for induction of T cell differentiation (qualitative): induction assay in vitro, no concentration stated", "protocol": "as §1, §2"}}, "note": "Entries after “also recorded” stand apart in the source; their conditions may differ. Ends that are not written are not given here."}
{"sequence": "GEQRKDVYVQLYL [tridecapeptide, H2 N--Gly--Glu--Gln--Arg--Lys--Asp--Val--Tyr--Val--Gln--Leu--Tyr--Leu--COOH]", "values": [{"measurement": "induction of differentiation of CR+ B cells", "setting": "[1]; in vitro, concentrations 0.01 ng to 10 μg/ml", "value": "does not induce; also recorded: did not induce"}, {"measurement": "induction of CR+ B cell differentiation (qualitative)", "setting": "[1]; induction assay in vitro, no concentration stated, listed as synthetic peptide", "value": "did not induce"}, {"measurement": "concentration from which the polypeptide is maximally active", "setting": "[2]; in vitro", "value": "about 100 nanogram per ml"}, {"measurement": "concentration from which the polypeptide is active", "setting": "[2]; in vitro, lower end of active concentrations", "value": 1, "unit": "nanogram per ml"}, {"measurement": "induction of T cell differentiation (qualitative)", "setting": "[2]; listed as polypeptide", "value": "inducing the differentiation of T-lymphocytes"}, {"measurement": "induction of T cell differentiation (qualitative)", "setting": "[2]; listed as synthetic peptide", "value": "induced the differentiation"}]}
